Data reported in patent US8871747B2, “Urea and thiourea derivatives” (Topotarget A/S, priority 2008, dated 2014).
Where a name gives a salt, the structure may show the parent alone.

Tested on: A2780 cells
Assay: In vitro cell proliferation assay (WST-1 assay)
Type: cell-based
Details: Homo sapiens, total incubation time 72 h, WST-1 viable cell readout
Method: A2780 cells were seeded in 96-well plates at 3×10^3 cells/well in 100 μL of culture medium, 8 wells were left empty for media only controls.
After 24 h the compound titrations were performed, in a separate dilution plate, by serially diluting the compounds of general formula (I) in culture medium. A 100 μL of each dilution was added to the plated cells, this was done in triplicate, and controls (e.g. DMSO and blanks) were included. The plates were incubated for 24 h at 37° C. in a CO2 incubator. The compound titrations were repeated in a separate dilution plate after 24 h. The media plus compound from the assay plates were then aspirated. A 100 μL of media was then added to all wells, followed by 100 μL of each compound dilution. The plates were incubated for a further 48 h at 37° C. in a CO2 incubator (total incubation time 72 h). The number of viable cells was then assessed using Cell Proliferation Reagent WST-1. 10 μL of WST-1 reagent added to each well and incubated for one to four hours at 37° C. in CO2 incubator. The absorbance was measured (450 nm/690 nm).
The activity of compounds of general formula (I) in reducing the number of viable cells was calculated as: % activity=[(S^C−B)/(S^O−B)]×100
S^C denotes signal measured in the presence of test compound, S^O denotes signal detected in the absence of compound, and B denotes background signal, measured in blank wells containing medium only. Analyse data using GraphPad Prism.

Row | SMILES | IC50
1 | O=C(NCCCCCCS(=O)(=O)NOCC1CCCCC1)Nc1ccncc1 [Compound 1001, N-(cyclohexylmethoxy)-6-(3-pyridin-4-ylureido)hexane-1-sulfonamide] | 13.5 nM
2 | O=C(NCCCCCCC(=O)N(OCCN1CCOCC1)C1CCCCC1)Nc1ccncc1 [Compound 1002, N-Cyclohexyl-N-(2-morpholinoethoxy)-7-(3-pyridin-4-ylureido)heptanamide] | 1.49 nM
3 | O=S(=O)(CCCCCCNC(=S)Nc1ccncc1)N(OCCN1CCOCC1)C1CCCCC1 [Compound 1005, N-Cyclohexyl-N-(2-morpholinethoxy)-6-(3-pyridin-4-ylthioureido)hexane-1-sulfonamide oxalate] | 0.34 nM
4 | O=C(NCCCCCCS(=O)(=O)N(OCCN1CCOCC1)C1CCCCC1)Nc1ccncc1 [Compound 1008, N-Cyclohexyl-N-(2-morpholinethoxy)-6-(3-pyridin-4-ylureido)hexane-1-sulfonamide oxalate] | 0.23 nM
5 | O=C(NCCCCCCC(=O)N(OCCN1CCOCC1)C1CCCCC1)NCc1cccnc1 [Compound 1009, N-cyclohexyl-N-(2-morpholinoethoxy)-7-(3-(pyridin-3-ylmethyl)ureido)heptanamide] | 0.33 nM
6 | COCCOCCOCCN(OCC1CCCCC1)S(=O)(=O)CCCCCCNC(=O)NCc1cccnc1 [Compound 1013, N-(cyclohexylmethoxy)-N-(2-(2-(2-methoxyethoxy)ethoxy)ethyl)-6-(3-(pyridin-3-ylmethyl)ureido)hexane-1-sulfonamide] | 0.11 nM
7 | O=C(CCCCCCNC(=S)NCc1cccnc1)N(OCCN1CCOCC1)C1CCCCC1 [Compound 1015, N-cyclohexyl-N-(2-morpholinoethoxy)-7-(3-(pyridin-3-ylmethyl)thioureido)heptanamide] | 0.89 nM
8 | O=C(NCCCCCCS(=O)(=O)N1CCCCO1)NCc1cccnc1 [Compound 1018, hydrochloride] | 14 nM
9 | O=C(NCCCCCCC(=O)N(OCCN1CCOCC1)C1CCCCC1)NCCc1cccnc1 [Compound 1020] | 1.34 nM
10 | CC(C)N(OCCN1CCOCC1)S(=O)(=O)CCCCCCNC(=O)NCc1cccnc1 [Compound 1022, N-Isopropyl-N-(2-morpholinoethoxy)-6-(3-(pyridin-3-ylmethyl)ureido)hexane-1-sulfonamide] | 2.23 nM
11 | O=C(NCCCCCCS(=O)(=O)N(CCCN1CCOCC1)C1CCCCC1)Nc1ccncc1 [Compound 1026, N-Cyclohexyl-N-(3-morpholinopropyl)-6-(3-pyridin-4-ylureido)hexane-1-sulfonamide] | 0.23 nM
12 | O=C(NCCCCCCS(=O)(=O)N(CCN1CCOCC1)OCC1CCCCC1)NCc1cccnc1 [Compound 1031, N-(cyclohexylmethoxy)-N-(2-morpholinoethyl)-6-(3-(pyridin-3-ylmethyl)ureido)hexane-1-sulfonamide] | 0.13 nM
13 | O=C(NCCCCCCS(=O)(=O)N(CCN1CCOCC1)OCC1CCCCC1)NCCc1cccnc1 [Compound 1032, N-(cyclohexylmethoxy)-N-(2-morpholinoethyl)-6-(3-(2-(pyridin-3-yl)ethyl)ureido)hexane-1-sulfonamide] | 14.1 nM
14 | O=C(NCCCCCS(=O)(=O)N(OCCN1CCOCC1)C1CCCCC1)NCc1cccnc1 [Compound 1042] | 6.64 nM
15 | O=C(NCCCCCCCS(=O)(=O)N(OCCN1CCOCC1)C1CCCCC1)NCc1cccnc1 [Compound 1043] | 0.37 nM
16 | CC(C)N(CCCN1CCOCC1)S(=O)(=O)CCCCCCNC(=O)Nc1ccncc1 [Compound 1049, N-Isopropyl-N-(3-morpholinopropyl)-6-(3-pyridin-4-ylureido)hexane-1-sulfonamide] | 0.6 nM
17 | O=C(NCCCCCCS(=O)(=O)N(OCCN1CCOCC1)C1CCCC1)NCc1cccnc1 [Compound 1056, N-Cyclopentyl-N-(2-morpholinoethoxy)-6-(3-(pyridin-3-ylmethyl)ureido)hexane-1-sulfonamide] | 0.58 nM
18 | O=C(NCCCCCCS(=O)(=O)N(OCCN1CCOCC1)C1CCCCCC1)NCc1cccnc1 [Compound 1058, N-Cycloheptyl-N-(2-morpholinoethoxy)-6-(3-(pyridin-3-ylmethyl)ureido)hexane-1-sulfonamide] | 0.63 nM

Row | SMILES | IC50
19 | O=S(=O)(CCCCCCNC(=S)Nc1ccncc1)N(CCCN1CCOCC1)C1CCCC1 [Compound 1064, N-Cyclopentyl-N-(3-morpholinopropyl)-6-(3-pyridin-4-ylthioureido)hexane-1-sulfonamide] | 0.55 nM
20 | O=C(NCCCCCCC(=O)N(OCCN1CCOCC1)C1CCCCC1)Nc1cccnc1 [Compound 1065, N-Cyclohexyl-N-(2-morpholinoethoxy)-7-(3-pyridin-3-ylureido)heptanamide] | 0.22 nM
21 | O=C(NCCCCCCS(=O)(=O)N(CCCN1CCOCC1)C1CCCC1)Nc1ccncc1 [Compound 1066, N-Cyclopentyl-N-(3-morpholinopropyl)-6-(3-pyridin-4-ylureido)hexane-1-sulfonamide] | 0.27 nM
22 | CCOP(=O)(CCCCCCNC(=O)NCc1cccnc1)NC1CCCCC1 (centres unmarked) [Compound 1067, Ethyl N-cyclohexyl-P-(6-(3-pyridin-3-ylmethyl)ureido)phosphonamidate] | 0.79 nM
23 | O=C(NCCCCCS(=O)(=O)N(CCCN1CCOCC1)C1CCCC1)NCc1cccnc1 [Compound 1069, N-cyclopentyl-N-(3-morpholinopropyl)-5-(3-(pyridin-3-ylmethyl)ureido)pentane-1-sulfonamide] | 3.04 nM
24 | CCOP(=O)(CCCCCCNC(=O)NCc1cccnc1)N1CCCCO1 (centres unmarked) [Compound 1072] | 2.4 nM
25 | O=C(NCCCCCCS(=O)(=O)N(OCCN1CCOCC1)C1CCCCC1)NCc1cccnc1 [Compound 1075, N-Cyclohexyl-N-(2-morpholinoethoxy)-6-(3-(pyridin-3-ylmethyl)ureido)hexane-1-sulfonamide oxalate] | 1.64 nM
26 | O=C(NCCCCCCS(=O)(=O)Nc1ccccc1)NCc1cccnc1 [Compound 1076, N-Phenyl-6-(3-(pyridin-3-ylmethyl)ureido)hexane-1-sulfonamide] | 5.4 nM
27 | O=C(NCCCCCCS(=O)(=O)N(CCN1CCOCC1)OCc1ccccc1)NCc1cccnc1 [Compound 1078, N-(Benzyloxy)-N-(2-morpholinoethyl)-6-(3-(pyridin-3-ylmethyl)ureido)hexane-1-sulfonamide] | 0.46 nM
28 | O=S(=O)(CCCCCCNC(=S)Nc1ccncc1)N(CCCN1CCOCC1)C1CCCCC1 [Compound 1081, N-Cyclohexyl-N-(3-morpholinopropyl)-6-(3-(pyridin-4-ylthioureido)hexane-1-sulfonamide oxalate] | 0.83 nM
29 | O=S(=O)(CCCCCCNC(=S)Nc1ccncc1)N(OCCN1CCOCC1)C1CCCC1 [Compound 1082] | 0.053 nM
30 | O=S(=O)(CCCCCNC(=S)Nc1ccncc1)N(OCCN1CCOCC1)C1CCCC1 [Compound 1083, N-Cyclopentyl-N-(2-morpholinoethoxy)-5-(3-(pyridin-4-ylthioureido)pentane-1-sulfonamide oxalate] | 3.92 nM
31 | O=S(=O)(CCCCCCNC(=S)Nc1ccncc1)N(CCF)OCC1CCCCC1 [Compound 1087, N-(cyclohexylmethoxy)-N-(2-fluoroethyl)-6-(3-pyridin-4-ylthioureido)hexane-1-sulfonamide] | 1.36 nM
32 | O=C(NCCCCCCS(=O)(=O)N(CCF)OCC1CCCCC1)Nc1ccncc1 [Compound 1088, N-(cyclohexylmethoxy)-N-(2-fluoroethyl)-6-(3-pyridin-4-ylureido)hexane-1-sulfonamide] | 0.13 nM
33 | O=C(NCCCCCCS(=O)(=O)N(CCF)OCC1CCCCC1)NCc1cccnc1 [Compound 1089, N-(cyclohexylmethoxy)-N-(2-fluoroethyl)-6-(3-(pyridin-3-ylmethyl)ureido)hexane-1-sulfonamide] | 2.04 nM
34 | O=C(NCCCCCCS(=O)(=O)N(OCCN1CCOCC1)C1CCCC1)Nc1ccncc1 [Compound 1090] | 0.15 nM
35 | O=C(/C=C/c1cccnc1)NCCCCC1CCN(C(=O)c2ccccc2)CC1 [FK866, reference compound] | 0.1 nM
